According to US6479435B1, “Diaryl ethers and processes for their preparation and herbicidal and desiccant compositions containing them” (ISK Americas Incorporated, priority 1997, dated 2002):

How the values were obtained:
Grass Weeds = experiment: Post-emergent application in combination with other herbicides, percent control of grass weeds; assay type: in vivo
Procedure: All test compounds were dissolved in acetone and applied to the test units in a volume of 187 l/ha. Test materials were applied at rates ranging from 125 g ai/ha to 1000 g ai/ha using a track sprayer equipped with a TJ8001E even flow flat fan spray nozzle. Plants were arranged on a shelf so that the top of the canopy (post-emerge) or top of the soil surface (pre-emerge) was 40-45 cm below the nozzle. Pressurized air was used to force the test solution through the nozzle as it was mechanically advanced (via electrically driven chain drive) over the top of all test plants/pots. This application simulates a typical commercial field herbicide application. In the post-emerge test, a commercial non-ionic surfactant was also included (0.25% v/v) to enhance wetting of the leaf surfaces Qf target plants at rates ranging from 63 g ai/ha to 1000 g ai/ha. For post-emerge tests, seeds were planted 8-21 days prior to the test to allow emergence and good foliage development prior to application of the test substances. At the time of the post-emerge application, plants of all species were usually at the 2-3 leaf stage of development. Post-emerge test units were always bottom-watered. At 14 days after application of the test materials, phytotoxicity ratings were recorded. A rating scale of 0-100 was used as previously described in Research Methods in Weed Science, 2nd edition, B. Truelove, Ed., Southern Weed Science Society, Auburn University, Auburn, Ala., 1977. Briefly, “0” corresponds to no damage and “100” corresponds to complete death of all plants in the test unit. This scale was used both to determine efficacy against weed species and damage to crop species. Herbicide activity data for various compounds of this invention, which are shown by compound number in Tables 1-9, are shown in Tables 13 and 14. […] (Note: Weed species abbreviations are from the Composite List of Weeds published by the Weed Science Society of America, 1989.) The following examples illustrate the utility of combinations of compounds of this invention and existing herbicides. The methods used are identical to those for the application of single compounds except the commercial formulations of existing herbicides were added to the spray mixture in the appropriate amounts before spraying. Combination Example 3. Post-emergent Application of Compound 9-1 with Nicosulfuron Combination Example 4. Postemergent Application of Compound 9-1 with Pyridate

Broadleaf Weeds = experiment: Post-emergent application in combination with other herbicides, percent control of broadleaf weeds; assay type: in vivo
Procedure: All test compounds were dissolved in acetone and applied to the test units in a volume of 187 l/ha. Test materials were applied at rates ranging from 125 g ai/ha to 1000 g ai/ha using a track sprayer equipped with a TJ8001E even flow flat fan spray nozzle. Plants were arranged on a shelf so that the top of the canopy (post-emerge) or top of the soil surface (pre-emerge) was 40-45 cm below the nozzle. Pressurized air was used to force the test solution through the nozzle as it was mechanically advanced (via electrically driven chain drive) over the top of all test plants/pots. This application simulates a typical commercial field herbicide application. […] For post-emerge tests, seeds were planted 8-21 days prior to the test to allow emergence and good foliage development prior to application of the test substances. At the time of the post-emerge application, plants of all species were usually at the 2-3 leaf stage of development. Post-emerge test units were always bottom-watered. At 14 days after application of the test materials, phytotoxicity ratings were recorded. A rating scale of 0-100 was used as previously described in Research Methods in Weed Science, 2nd edition, B. Truelove, Ed., Southern Weed Science Society, Auburn University, Auburn, Ala., 1977. Briefly, “0” corresponds to no damage and “100” corresponds to complete death of all plants in the test unit. This scale was used both to determine efficacy against weed species and damage to crop species. Herbicide activity data for various compounds of this invention, which are shown by compound number in Tables 1-9, are shown in Tables 13 and 14. […] (Note: Weed species abbreviations are from the Composite List of Weeds published by the Weed Science Society of America, 1989.) The following examples illustrate the utility of combinations of compounds of this invention and existing herbicides. The methods used are identical to those for the application of single compounds except the commercial formulations of existing herbicides were added to the spray mixture in the appropriate amounts before spraying. Combination Example 3. Post-emergent Application of Compound 9-1 with Nicosulfuron Combination Example 4. Postemergent Application of Compound 9-1 with Pyridate

SMILES: CCS(=O)(=O)c1cccnc1Oc1cc(-n2c(=O)cc(C(F)(F)F)n(N)c2=O)c(F)cc1Cl [Compound 9-13, 1-Amino-3-[4-Chloro-2-fluoro-5-(3-ethylsulfonyl-2-pyridyloxy)phenyl]-6-trifluoromethyl-1,2,3,4-tetrahydropyrimidine-2,4-dione]
- melting point: 277 to 279 °C

SMILES: CS(=O)(=O)c1cccnc1Oc1cc(-n2c(=O)cc(C(F)(F)F)n(N)c2=O)c(F)cc1Cl [Compound 9-19, 1-Amino-3-[4-chloro-2-fluoro-5-(3-methylsulfonyl-2-pyridyloxy)phenyl]-6-trifluoromethyl-1,2,3,4-tetrahydropyrimidine-2,4-dione]
- melting point: 276 to 278 °C

SMILES: N#Cc1ccccc1Oc1cc(-n2c(=O)cc(C(F)(F)F)n(N)c2=O)c(F)cc1Cl [Compound 9-30, 1-Amino-3-[4-chloro2-fluoro-5-(2-cyanophenoxy)phenyl]-6-trifluoromethyl-1,2,3,4-tetrahydropyrimidine-2,4-dione]
- melting point: 220 to 222 °C

SMILES: N#Cc1c(F)cccc1Oc1cc(-n2c(=O)cc(C(F)(F)F)n(N)c2=O)c(F)cc1Cl [Compound 9-31, 1-Amino-3-[4-chloro-2-fluoro-5-(2-cyano-3-fluorophenoxy)phenyl]-6-trifluoromethyl-1,2,3,4-tetrahydropyrimidine-2,4-dione]
- melting point: 230 to 233 °C

SMILES: COc1cc(OC)nc(NC(=O)NS(=O)(=O)c2ncccc2C(=O)N(C)C)n1 [Nicosulfuron, reference compound]
- Percent Control of Grass Weeds DIGSA (Grass Weeds; 23 g ai/ha): 80%
- Percent Control of Grass Weeds ECHCG (Grass Weeds; 23 g ai/ha): 95%
- Percent Control of Grass Weeds SETVI (Grass Weeds; 23 g ai/ha): 85%
- Percent Control of Grass Weeds SORHA (Grass Weeds; 23 g ai/ha): 85%
- Percent Control of Broadleaf Weeds ABUTH (Broadleaf Weeds; 23 g ai/ha): 55%
- Percent Control of Broadleaf Weeds AMARE (Broadleaf Weeds; 23 g ai/ha): 70%
- Percent Control of Broadleaf Weeds AMBEL (Broadleaf Weeds; 23 g ai/ha): 0%
- Percent Control of Broadleaf Weeds CASOB (Broadleaf Weeds; 23 g ai/ha): 30%
- Percent Control of Broadleaf Weeds CHEAL (Broadleaf Weeds; 23 g ai/ha): 70%
- Percent Control of Broadleaf Weeds IPOHE (Broadleaf Weeds; 23 g ai/ha): 70%

SMILES: CCCCCCCCSC(=O)Oc1cc(Cl)nnc1-c1ccccc1 [Pyridate, reference compound]
- Percent Control of Grass Weeds DIGSA (Grass Weeds; 527 g ai/ha): 10%
- Percent Control of Grass Weeds ECHCG (Grass Weeds; 527 g ai/ha): 50%
- Percent Control of Grass Weeds SETVI (Grass Weeds; 527 g ai/ha): 95%
- Percent Control of Grass Weeds SORHA (Grass Weeds; 527 g ai/ha): 10%
- Percent Control of Broadleaf Weeds ABUTH (Broadleaf Weeds; 527 g ai/ha): 60%
- Percent Control of Broadleaf Weeds AMARE (Broadleaf Weeds; 527 g ai/ha): 90%
- Percent Control of Broadleaf Weeds AMBEL (Broadleaf Weeds; 527 g ai/ha): 40%
- Percent Control of Broadleaf Weeds CASOB (Broadleaf Weeds; 527 g ai/ha): 10%
- Percent Control of Broadleaf Weeds CHEAL (Broadleaf Weeds; 527 g ai/ha): 85%
- Percent Control of Broadleaf Weeds IPOHE (Broadleaf Weeds; 527 g ai/ha): 80%
